Assay [1] concerns GCN2 pathway (p-GCN2, ATF4) in HT1080 cells. The experiment in a line: Western blot analysis of HT1080 cell lysates. The format is cell-based, human. The note with it: FIG. 5. How it is done:
The HT1080 cells were harvested and counted and diluted to the desired density. 2 mL of cell suspension was added into each well of 6-well cell culture plate. The plates were transferred into 37° C., 5% CO2 incubator overnight. The cells were treated as described above. The media was aspirated, and cells were washed with ice cold phosphate buffered saline (PBS). Ice cold 1× radioimmunoprecipitation assay (RIPA) lysis buffer supplemented with protease and phosphatase inhibitors was added to the cell pellets, on ice. After 30 min on ice the cell lysates were centrifuged at 4° C., 12,000 rpm for 15 minutes and the supernatant collected. Protein concentration was determined using BCA kit. The cell lysates were mixed with 5× sodium dodecyl sulfate (SDS) loading buffer and denatured at 95° C. for 5 minutes. […] After the electrophoresis was completed, the separated protein was transferred to a nitrocellulose membrane using transblot system for 90 min, 300 mA, then the membrane was blocked with (tris-buffered saline) TBS buffer (5% bovine serum albumin (BSA)) for 1 hr at room temperature. The membrane was exposed to the primary antibodies overnight in cold room in TBS buffer (1% BSA). The membrane was then washed with TBS-Tween for 3×10 min at R/T, incubated with secondary antibodies in TBS buffer (1% BSA) for 1 hr at RT. The membrane was washed with TBS-Tween for 3×10 min at R/T and the imaging was acquired with Li—COR imaging system.

In another assay the test system is FaDu cells. The experiment in a line: CTG viability assay, FaDu sgControl and sgGCN2 cells. The format is cell-based, human. The note with it: 72 or 96 hr. The protocol:
FaDu cells were obtained from ATCC (#HTB-43) and were cultured in Eagle's Minimum Essential Medium, Catalog No. 30-2003 at 37° C. and 5% CO2. FaDu GCN2 CRISPR knockout cells (sgGCN2) or control cells (sgControl) were generated. For viability experiments, cells were plated in 384-well cell culture plates and incubated overnight. Compounds were diluted in 10 concentrations by 3-fold dilution in 384pp-plate using TECAN EVO200 to a final concentration ranging from […]. The plates were incubated for 72 or 96 hr and viability was assessed by adding CellTiter-Glo® 2.0 Assay according to the manufacturer's protocol (Promega, G9243) to each well. The plates were then incubated at RT for 30 min. The luminescent signals were read by Envision (PerkinElmer) plate reader and analyzed by Prism

For assay [2], the system named is patient-derived Champions' human AML models. The experiment in a line: Ex vivo AML PDX cell viability (Cell Titer Glo), 30 models. The format is cell-based. The note with it: for EC50: Homo sapiens. How it is done:
. Cell viability was assayed after treating PDX models with DMSO or HC-7366 for 6 days using a plate-based luminescence assay (Cell Titer Glo). […]
EC50 values were calculated to the bottom of the curve and are provided below. Viability curves are provided for the models CTG-2229 (FIG. 81), CTG-3680 (FIG. 82), CTG-3667 (FIG. 83), CTG-2456 (FIG. 84), CTG-2457 (FIG. 85), and CTG-2454 (FIG. 86).

Assay [3] relates to OCI-AML2 (human AML cancer cells). The experiment in a line: In vivo tumor growth inhibition, OCI-AML2 xenograft. Also noted: species or system NOD SCID mice. The protocol: OCI-AML2 (human AML cancer cells): Female 6-8 weeks old NOD SCID mice were inoculated subcutaneously on the right flank with OCI-AML2 tumor cells (5×10^6) in RPMI 1640 without serum for tumor development. The treatments were started when the mean tumor size reached approximately 149 mm^3 at Day 7 after cell inoculation and continued until end of study by twice daily oral gavage dosing of HC-7366 at listed doses (vehicle, 0.3 mg/kg HC-7366, 1 mg/kg HC-7366, 3 mg/kg HC-7366, 10 mg/kg HC-7366, or 30 mg/kg HC-7366, FIG. 19).
[formula] • 2.2.2 Tumor Measurements: The measurement of tumor size was conducted three times weekly with a caliper and recorded. The tumor volume (mm^3) was estimated using the formula: TV=a×b^2/2, where “a” and “b” is long and short diameters of a tumor, respectively. Tumor volume was calculated using the formula [tumor volume (mm^3)=π/6×length×width^2).
Regression was calculated using the formula=100×ΔT/T initial, if ΔT<0. Animals with 0 mm^3 tumor volume (no measurable tumor) for three consecutive measurements were considered as complete responders and animals with 50% tumor regressions were partial responders.

Assay [4] deals with ATF4, ASNS, PSAT1 in MOLM-16 cells. Kind of assay: Jess protein analysis, MOLM-16 cells. The class given is cell-based, human. The note with it: sgControl vs sgGCN2, 24 hr. The protocol: Cell lysates were obtained from MOLM-16 sgControl or sgGCN2 cells treated with HC-7366 (0, 0.01, 0.1 and 10 μM) for 24 hr. Ice cold 1x radioimmunoprecipitation assay (RIPA) lysis buffer supplemented with protease and phosphatase inhibitors was added to the cell pellets, on ice. After 30 min on ice, the cell lysates were centrifuged at 4° C., 12,000 rpm for 15 minutes and the supernatant collected. Protein concentration was determined using BCA kit. The cell lysates were mixed with 5× sodium dodecyl sulfate (SDS) loading buffer and denatured at 95° C. for 5 minutes. 1 μg lysate was run on Jess capillary and results were analyzed by compass simple western software.

For assay [5], the system named is oxidative phosphorylation pathway in FaDu tumors. Kind of assay: Non-targeted proteomic analysis of FaDu tumors. The class given is in vivo, mice. How it is done: FaDu tumor bearing mice were treated with vehicle or HC-7366 (1, 3, or 30 mg/kg) twice a day orally for three days, and on the morning of Day 4 an AM dose was administered and tumors and plasma were collected 1 hr after dose. Tumor and plasma samples were extracted and split into equal parts for analysis on LC/MS/MS and Polar LC platforms. Proprietary software was used to match ions to an in-house library of standards for metabolite identification and for metabolite quantitation by peak area integration (Metabolon). Proteomic analysis on tumors was performed at MS Bioworks. The equivalent of 3 μg of peptide from each pooled fraction was analyzed by nano LC-MS/MS with a Waters M-Class HPLC system interfaced to a ThermoFisher Fusion Lumos mass spectrometer. Histograms show metabolite levels of treatment groups normalized to vehicle control (FIGS. 115-122).
FaDu tumor bearing mice were treated with HC-7366 at 3 and 30 mg/kg twice a day for four days. Tumors were harvested for non-targeted proteomic analysis.

Experimental findings from US20250339426A1, “GCN2 MODULATOR FOR TREATING CANCER” (HIBERCELL, INC., priority 2022, published 2025) are described below.

Take `CNC(=O)c1ncn2cc(-c3c(F)ccc(NS(=O)(=O)c4cc(Cl)cnc4OC)c3F)ncc12` [HC-7366, 6-(3-((5-chloro-2-methoxypyridine)-3-sulfonamido)-2,6-difluorophenyl)-N-methylimidazo[1,5-a]pyrazine-1-carboxamide]: the “GCN2 pathway, HC-7366 by itself” value in assay [1] (0 to 10 μM) is recorded as “activation of GCN2 pathway”. Besides, the “halofuginone induced p-GCN2 and ATF4” value in assay [1] (100 nM Halofuginone) is “inhibited”. For the same molecule, in the assay on FaDu cells (FaDu control cells), the viability entry was “potently reduced viability”. Moreover, in the assay on FaDu cells (GCN2 CRISPR knockout cells), the viability response entry is “reversed”. For the same molecule, in assay [2] (4.57-10,000 nM, 6 days), the “viability of primary AML PDX cells” value is listed as “potently reduced viability”. The EC50 in assay [2] (5 PDX models, resistant responders) was 924 to 2250 nM; in assay [2] (11 PDX models, sensitive responders), under 100 nM; in assay [2] (12 PDX models, moderate responders), 100 to 350 nM. Moreover, the response entry in assay [2] (two models) is “no response”. Also, the TGI result in assay [3] (10 mg/kg twice daily oral) is recorded as “about 47%”; in assay [3] (30 mg/kg twice daily oral), about 51%. The “levels of ATF4, ASNS and PSAT1” value in assay [4] is “GCN2-dependent increase”. The “oxidative phosphorylation pathway, pathway analysis (IPA)” value in assay [5] (3 mg/kg twice a day, four days) is “strong repression”. In addition, the “protein subunits of the electron transport chain” value in assay [5] (3 mg/kg, relative to vehicle) was “decreased”.

As a reminder, the EC50 is the concentration giving half of the maximal effect. Read a high EC50 as weaker potency.
